Source: publication PMC7010350 (ACS chemical biology, 2019)

Assays:
Format in all cases: physicochemical
[1] = Thermostability, heat treatment at 95 °C for 2 h, LC-MS
[2] = Solubility of the lyophilized peptide on resuspension in water or methanol; conditions: aqueous suspension relyophilized and resuspended in methanol
[3] = Susceptibility of the disulfide bond to reduction with DTT or β-mercaptoethanol; conditions: LC-MS

Substance	thermally induced unthreading (in words) [1]	solubility in methanol (in words) [2]	peptide reduced, 20 mM DTT with heating ([3]; 20 mM DTT, 95 °C for 2 h)	reduction of the disulfide bond, 20 mM DTT, room temperature ([3]; 20 mM DTT, room temperature 1 h, aqueous peptide 5.8 mg/mL)	peptide reduced, 5% β-ME with heating (in words) ([3]; 5% (~641 mM) β-mercaptoethanol, 95 °C for 2 h)
pandonodin C16A C21A [pandonodin AA]	significantly more pandonodin AA unthreaded than did wild-type pandonodin	–	–	–	–
pandonodin	only minimal unthreading	readily dissolved	less than 10%	no reduction products were observed	a majority of pandonodin was reduced
